Source: ChEMBL document CHEMBL1811861 (Bioorg Med Chem, 2011)

Legend:
[1] = test system: Human immunodeficiency virus 1; assay: microbe, parasite or virus in culture; settings: Human immunodeficiency virus 1, LAI, MT2
[2] = test system: Human alphaherpesvirus 3; assay: microbe, parasite or virus in culture; settings: Human alphaherpesvirus 3, 07/1, HEL
[3] = test system: Human alphaherpesvirus 3; assay: microbe, parasite or virus in culture; settings: Human alphaherpesvirus 3, strain Oka vaccine, HEL
[4] = test system: Feline coronavirus; assay: microbe, parasite or virus in culture; settings: Alphacoronavirus 1, CRFK
[5] = cat, crfk, 72 h
[6] = test system: Felid alphaherpesvirus 1; assay: microbe, parasite or virus in culture; settings: Felid alphaherpesvirus 1, CRFK
[7] = test system: Respiratory syncytial virus; assay: microbe, parasite or virus in culture; settings: human respiratory syncytial virus, HeLa
[8] = test system: Punta Toro virus; assay: microbe, parasite or virus in culture; settings: Vero
[9] = test system: Human betaherpesvirus 5; assay: microbe, parasite or virus in culture; settings: Human betaherpesvirus 5, Davis, HEL
[10] = test system: Human respirovirus 3; assay: microbe, parasite or virus in culture; settings: Human respirovirus 3, Vero
[11] = test system: Coxsackievirus B4; assay: microbe, parasite or virus in culture; settings: Enterovirus B, Vero
[12] = test system: Mammalian orthoreovirus 1; assay: microbe, parasite or virus in culture; settings: Mammalian orthoreovirus 1, Vero
[13] = test system: Human betaherpesvirus 5; assay: microbe, parasite or virus in culture; settings: Human betaherpesvirus 5, AD169, HEL
[14] = test system: Sindbis virus; assay: microbe, parasite or virus in culture; settings: Vero
[15] = test system: Influenza A virus; assay: microbe, parasite or virus in culture; settings: H3N2, MDCK
[16] = test system: Human immunodeficiency virus 2; assay: microbe, parasite or virus in culture; settings: Human immunodeficiency virus 2, ISOLATE ROD, CCRF-CEM, 96 h
[17] = test system: Human immunodeficiency virus 1; assay: microbe, parasite or virus in culture; settings: Human immunodeficiency virus 1, 3B, CCRF-CEM, 96 h
[18] = test system: Influenza B virus; assay: microbe, parasite or virus in culture; settings: MDCK
[19] = test system: Human alphaherpesvirus 1; assay: microbe, parasite or virus in culture; settings: Human alphaherpesvirus 1, KOS, HEL
[20] = test system: Human alphaherpesvirus 2; assay: microbe, parasite or virus in culture; settings: Human alphaherpesvirus 2, strain G, HEL
[21] = test system: Influenza A virus; assay: microbe, parasite or virus in culture; settings: H1N1, MDCK
[22] = test system: HeLa; settings: human, 72 h
[23] = test system: Human alphaherpesvirus 1; assay: microbe, parasite or virus in culture; settings: Human alphaherpesvirus 1, KOS, HEL; remark: listed apart in the source
[24] = test system: Vesicular stomatitis virus; assay: microbe, parasite or virus in culture; settings: HEL
[25] = test system: Vaccinia virus; assay: microbe, parasite or virus in culture; settings: Orthopoxvirus vaccinia, HEL
[26] = test system: Coxsackievirus B4; assay: microbe, parasite or virus in culture; settings: Enterovirus B, HeLa
[27] = test system: Vesicular stomatitis virus; assay: microbe, parasite or virus in culture; settings: HeLa
[28] = test system: HEL; settings: human, 72 h
[29] = test system: CCRF-CEM; settings: human, 72 h
[30] = test system: Human betaherpesvirus 5; assay: microbe, parasite or virus in culture; settings: Human betaherpesvirus 5, AD169, HFF
[31] = in vitro; settings: human, HeLa cells

CCCCCCCCCCCCCCCCOCCCOP(=O)(O)COCCn1cnc2c(N)ncnc21
EC50 [1]: 0.015 nM

Nc1ncnc2c1ncn2CCOCP(=O)(O)OCCCCCCCCCCO
EC50 [2]: 64.3 µM
EC50 [3]: 114 µM

Nc1ncnc2c1ncn2CCOCP(=O)(O)OCCCCCCCCC(O)CO (centres undefined)
EC50 [4]: > 9 µM
CC50 [5]: 9.4 µM
EC50 [6]: > 9 µM

Nc1ncnc2c1ncn2CCOCP(=O)(OCCCCCCCCCCO)OCCCCCCCCCCO
EC50 [7]: 99 µM
EC50 [8]: > 34 µM
EC50 [2]: > 34 µM
EC50 [9]: > 34 µM
EC50 [10]: > 34 µM
EC50 [11]: > 34 µM
EC50 [12]: > 34 µM
EC50 [3]: > 34 µM
EC50 [13]: > 34 µM
EC50 [14]: > 34 µM

Nc1ncnc2c1ncn2CCOCP(=O)(OCCCCCCCCC(O)CO)OCCCCCCCCC(O)CO (centres undefined)
EC50 [2]: 60.7 µM
EC50 [15]: > 324 µM
EC50 [3]: 99 µM

Nc1ncnc2c1ncn2CCOCP(=O)(O)OCCOCCCCCCCCCCO
EC50 [16]: 95 µM
EC50 [2]: 18.4 µM
EC50 [17]: 106 µM
EC50 [18]: > 42 µM
EC50 [19]: 122 µM
EC50 [20]: 122 µM
EC50 [15]: > 42 µM
EC50 [3]: 26 µM
EC50 [21]: > 42 µM

Nc1ncnc2c1ncn2CCOCP(=O)(O)OCCOCCCCCCCCC(O)CO (centres undefined)
EC50 [2]: ≥ 72.7 µM
EC50 [3]: 61.4 µM

Nc1ncnc2c1ncn2CCOCP(=O)(OCCOCCCCCCCCCCO)OCCOCCCCCCCCCCO
EC50 [4]: > 29.7 µM
EC50 [7]: > 29.7 µM
CC50 [22]: 148 µM
EC50 [23]: > 29.7 µM
EC50 [16]: > 29.7 µM
EC50 [8]: > 29.7 µM
EC50 [2]: > 29.7 µM
EC50 [24]: > 29.7 µM
CC50 [5]: > 148 µM
EC50 [9]: > 29.7 µM
EC50 [25]: > 29.7 µM
EC50 [26]: > 29.7 µM
EC50 [10]: > 29.7 µM
EC50 [11]: > 29.7 µM
EC50 [17]: > 29.7 µM
EC50 [18]: > 5.9 µM
EC50 [19]: > 29.7 µM
EC50 [20]: > 29.7 µM
EC50 [12]: > 29.7 µM
EC50 [27]: > 29.7 µM
CC50 [28]: 62.5 µM
EC50 [15]: > 5.9 µM
EC50 [3]: > 29.7 µM
EC50 [13]: > 29.7 µM
CC50 [29]: 13.5 µM
EC50 [14]: > 29.7 µM
EC50 [21]: > 5.9 µM
EC50 [6]: > 29.7 µM

Nc1ncnc2c1ncn2CCOCP(=O)(OCCOCCCCCCCCC(O)CO)OCCOCCCCCCCCC(O)CO (centres undefined)
EC50 [13]: > 28.3 µM

Nc1ncnc2c1ncn2CCOCP(=O)(O)OCCOCCOCCOCCOCCOCCO
EC50 [2]: 40.9 µM

CCOCCOCCOCCOCCOCCOCCOP(=O)(O)COCCn1cnc2c(N)ncnc21
EC50 [2]: 69 µM
CC50 [28]: 146 µM
EC50 [3]: 74.3 µM

Cc1oc(=O)oc1COP(=O)(O)COCCn1cnc2c(N)ncnc21
EC50 [23]: 51.9 µM
EC50 [16]: 9.3 µM
EC50 [2]: 7.6 µM
EC50 [17]: 10.6 µM
EC50 [19]: 51.9 µM
EC50 [20]: 98.6 µM
CC50 [28]: 117 µM
EC50 [3]: 1.92 µM
CC50 [29]: 88 µM

Nc1ccn(C[C@@H](CO)OCP(=O)(O)OCCOCCOCCOCCOCCOCCO)c(=O)n1
EC50 [23]: 16.5 µM
EC50 [2]: 0.6 µM
EC50 [9]: 0.7 µM
EC50 [25]: 107 µM
EC50 [19]: 12.9 µM
EC50 [20]: 7.4 µM
EC50 [3]: 1.91 µM
EC50 [13]: 0.8 µM
EC50 [6]: 14.5 µM

CCOCCOCCOCCOCCOCCOCCOP(=O)(O)CO[C@H](CO)Cn1ccc(N)nc1=O
EC50 [25]: 15.7 µM
EC50 [19]: 3.5 µM
EC50 [20]: 1.4 µM
EC50 [13]: 0.95 µM
EC50 [6]: 2.8 µM

CCCCCCCCCCCCCCOCCCOP(=O)(O)CO[C@H](CO)Cn1ccc(N)nc1=O
EC50 [30]: 0.002 µM

Nc1nc2c(ncn2COCCO)c(=O)[nH]1 [ACYCLOVIR]
EC50 [2]: 69.3 µM
CC50 [28]: ≥ 1420 µM

Nc1ncnc2c1ncn2CCOCP(=O)(O)O [ADEFOVIR]
CC50 [22]: > 250 µM
EC50 [23]: 42.5 µM
EC50 [16]: 8.6 µM
EC50 [2]: 5 µM
EC50 [9]: 115 µM
EC50 [17]: 10.4 µM
EC50 [19]: 41.4 µM
EC50 [20]: 24.9 µM
EC50 [3]: 6.7 µM
EC50 [13]: 118 µM
CC50 [29]: 164 µM
EC50 [1]: 1100 nM

CCCCCCCCCCCCCCCCOCCCOP(=O)(O)CO[C@H](CO)Cn1ccc(N)nc1=O [BRINCIDOFOVIR]
EC50 [30]: 0.0009 µM

O=c1[nH]c(=O)n([C@H]2C[C@H](O)[C@@H](CO)O2)cc1/C=C/Br [BRIVUDINE]
EC50 [2]: ≥ 105 µM
EC50 [19]: 274 µM
EC50 [20]: 45.7 µM
CC50 [28]: 470 µM
EC50 [3]: 0.013 µM

Nc1ccn(C[C@@H](CO)OCP(=O)(O)O)c(=O)n1 [CIDOFOVIR]
EC50 [23]: 1.6 µM
EC50 [2]: 0.1 µM
EC50 [9]: 0.94 µM
EC50 [25]: 7 µM
EC50 [20]: 1.43 µM
CC50 [28]: 234 µM
EC50 [30]: 1.2 µM
EC50 [3]: 0.29 µM
EC50 [13]: 0.92 µM

Nc1nc(O)c2ncn(COC(CO)CO)c2n1 [GANCICLOVIR]
CC50 [5]: > 394 µM
EC50 [25]: > 250 µM
EC50 [20]: 0.027 µM
CC50 [28]: 435 µM
EC50 [6]: 8.1 µM

CCOC(=O)C1=C[C@@H](OC(CC)CC)[C@H](NC(C)=O)[C@@H](N)C1 [OSELTAMIVIR]
EC50 [18]: 23.5 µM
EC50 [21]: 12 µM

NC(=O)c1ncn([C@@H]2O[C@H](CO)[C@@H](O)[C@H]2O)n1 [RIBAVIRIN]
EC50 [7]: 3 µM
CC50 at 72 h [31]: > 250 µM
EC50 [11]: > 250 µM
EC50 [12]: ≥ 174 µM
EC50 [14]: > 250 µM
EC50 [21]: 9.8 µM
